Activity calls are given as the source filed them. The calls are words filed in the database; no cut-off is given here.
Key:
HCT-116 = test: Cytotoxicity against human HCT116 p53 +/+ and -/- cells after 72 hrs by MTT assay; type: cell-based; details: HCT-116, 72 h
[1] = Inhibition of human Flag-tagged LEDGF interaction to His6-tagged HIV1 integrase expressed in Escherichia coli BL21 (DE3) preincubated for 20 mins measured after 1 hr by AlphaScreen proximity luminescent assay
[2] = biological target: T1, Human immunodeficiency virus type 1 integrase (Human immunodeficiency virus 1, UniProt Q7ZJM1); test: Inhibition of wild type HIV1 integrase 3'-processing activity using 5'-end 32P-labeled linear oligonucleotide as substrate preincubated for 30 mins
T1 sequence (Q7ZJM1 whole entry): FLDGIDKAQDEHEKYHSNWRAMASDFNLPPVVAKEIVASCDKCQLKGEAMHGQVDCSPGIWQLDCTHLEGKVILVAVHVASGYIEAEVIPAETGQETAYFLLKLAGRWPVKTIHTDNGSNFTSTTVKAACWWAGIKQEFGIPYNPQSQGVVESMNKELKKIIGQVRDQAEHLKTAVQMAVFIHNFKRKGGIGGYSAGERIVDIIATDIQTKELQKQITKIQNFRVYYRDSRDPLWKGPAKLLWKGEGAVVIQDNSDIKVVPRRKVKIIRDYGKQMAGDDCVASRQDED

[3] = tested on: Human immunodeficiency virus 1; test: Antiviral activity against HIV1 3B infected in human MT4 cells assessed as inhibition of virus-induced cytopathic effect by MTT assay; type: functional, organism-based; details: Human immunodeficiency virus 1, 3B
[4] = biological target: T1, Human immunodeficiency virus type 1 integrase; test: Inhibition of wild type HIV1 integrase strand transfer activity using 5'-end 32P-labeled linear oligonucleotide as substrate preincubated for 30 mins
[5] = Inhibition of human Flag-tagged LEDGF interaction to His6-tagged HIV1 integrase expressed in Escherichia coli BL21 (DE3) at 1000 uM preincubated for 20 mins measured after 1 hr by AlphaScreen proximity luminescent assay

Compound	EC50 (HCT-116) [µM]	IC50 [1] [µM]	IC50 [2] [µM]	IC50 [3] [µM]	IC50 [4] [µM]	inhibition [5]
CCN(CC)c1ccc(/C=C2\CCC(/C=N/N=C/c3c(C)[nH]c4ccccc34)=C2N2CCOCC2)cc1	> 10	40				
CC/C(=N\NC(=O)c1ccc(F)cc1)c1cc(Cl)cc(Cl)c1O	2.5	> 50				
O=C1C(O)=Cc2ccccc2/C1=N\Nc1ccc(Cl)cc1		3	> 100	> 40	100	
Cc1cc(C)nc(N/N=C/c2cccc(O)c2)n1	4	> 50				
O=C(Nn1cnc2ccccc2c1=O)c1cnccn1		39				
CC/N=c1/scc(-c2cc(OC)ccc2OC)n1/N=C(\C)c1ccco1	> 10	8	> 100	> 60	> 100	
c1ccc(/N=N/C(=N/Nc2ccccc2)c2ccccc2)cc1	> 10	20	> 100	> 5	> 100	
CN(C)c1ccc(/N=N/c2ccc(Cl)cc2)cc1	> 10	2	> 100	> 100	> 100	
O=C(N/N=C/c1ccc(Cl)cc1Cl)c1n[nH]c2c1CCC2	< 1	> 50				
O=C(N/N=C/c1cc(Br)ccc1O)c1cccnc1		4	> 100	> 3	> 100	
COc1cc(Br)cc(/C=N/NC(=O)c2ccccn2)c1O		1.3	17	> 22	13	
Cn1cccc1/C=N/N1CCN(Cc2ccccc2)CC1	> 10	32	> 100		> 100	
NNC(=O)Cn1cnc(-c2ccc(F)cc2)c1		> 50				
C/C(=N\NC(=O)C1CCCCC1)c1ccccc1O	> 10	93		> 20		
C/C(=N\N1CCN(Cc2ccccc2Cl)CC1)c1ccc([N+](=O)[O-])cc1	> 10	19	> 100	> 100	> 100	
Cc1nnc(NNC(=O)c2ccccc2)c2c1[nH]c1ccccc12		> 50				
Oc1ccc(Br)cc1/C=N/Nc1cccc2cccnc12		> 50	> 100		> 100	
COCCN1C(=O)/C(=C\NNC(=O)c2cc(Cl)ccc2O)C(=O)NC1=S	10	13	90	> 40	80	
COc1cc(/C=N/Nc2ccc(S(=O)(=O)Nc3ccccc3C(=O)O)cc2[N+](=O)[O-])ccc1O		25	> 100	> 10	> 100	
COc1ccccc1N1CCN(/N=C/c2ccc(Cl)c([N+](=O)[O-])c2)CC1	> 10	21	> 100	> 100	> 100	

Compound	EC50 (HCT-116) [µM]	IC50 [1] [µM]	IC50 [2] [µM]	IC50 [3] [µM]	IC50 [4] [µM]	inhibition [5]
Cc1sc2ncnc(N/N=C/c3c(O)ccc4ccccc34)c2c1C	< 1	6	77		52	
C/C(=N\Nc1ccc(S(=O)(=O)Nc2ccccc2)cc1[N+](=O)[O-])c1cc(O)ccc1O		13	> 100	> 28	> 100	
CC/N=c1/scc(-c2ccc(Br)cc2)n1/N=C/c1ccc(O)c(O)c1O	> 10	< 25		> 35		
CC(=O)c1ccc(/N=N/c2ccc(C[P+](c3ccccc3)(c3ccccc3)c3ccccc3)cc2)cc1	0.5	12	> 100		> 100	
CC(C)c1ccc(/C=N/N2CCN(Cc3ccccc3)CC2)cc1	> 10	50				
O=C(N/N=C/c1ccccc1O)c1cnccn1	9	0.4	> 100	> 40	> 100	
CC(Oc1ccccc1)C(=O)N/N=C/c1ccccc1O (stereo unspecified)	6.5	50				
Cc1nc2ccccc2c(=O)n1/N=C/c1ccccc1O	10	> 50				
O=C(N/N=C/c1ccc(O)cc1O)c1ccncc1	4	4	> 100		> 100	
CCNc1nc(NCC)nc(C(=O)Nc2ccccc2)n1		21				
CCOc1cccc(/C=N/NC(=O)c2n[nH]c3c2CCC3)c1O	6	2	> 100	> 4	> 100	
O=C(N/N=C/c1ccc(Cl)cc1Cl)c1cnccn1	> 10	> 50	> 100		> 100	
COc1ccc(O)c(/C=N/NC(=O)c2sc3ccccc3c2O)c1	8	38	> 100		> 100	
CCN(CC)c1ccc(/C=C2\CCC(/C=N/N3CCN(c4ccc(C)cc4)CC3)=C2N2CCOCC2)cc1	3.3	46				
O=[N+]([O-])c1ccccc1/C=N/N1CCN(Cc2ccccc2)CC1	< 10	24				
COC(=O)c1ccc(/N=N/c2ccc([P+](c3ccccc3)(c3ccccc3)c3ccccc3)cc2)cc1	0.4	36				
O=C(COc1ccc(Cl)cc1Cl)N/N=C/c1cc(Br)ccc1O	> 10	50	> 100		> 100	
COc1ccc(CN2CCCN(c3ccc(S(=O)(=O)Nc4ccccc4)cc3[N+](=O)[O-])CC2)cc1	> 10	34		24		
NNC(=O)c1ccncc1						inactive
Cc1nnc(NN)c2c1[nH]c1ccccc12		5	> 100	> 50	> 100	

Compound	EC50 (HCT-116) [µM]	IC50 [1] [µM]	IC50 [2] [µM]	IC50 [3] [µM]	IC50 [4] [µM]	inhibition [5]
Oc1ccc(/C=N/N2CCN(c3ccccc3)CC2)cc1O	> 10	16	69		31	
CCNc1nc(NCC)nc(C(=O)NN)n1		6	< 100	> 20	< 100	
FC(F)(F)c1ccccc1/C=N/N1CCN(Cc2ccccc2)CC1	> 10	35	> 100		> 100	
O=C(N/N=C/c1c(O)ccc2ccccc12)c1ccncc1		6	> 100		> 100	
Cc1nnc(Cl)c2c1[nH]c1ccccc12		> 50				
COc1c(Cl)cc(Cl)cc1/C=N/NC(=O)c1ccncc1		> 50	> 100		> 100	
O=C(N/N=C/c1c(O)ccc2ccccc12)c1n[nH]c2c1CCC2	< 1	4	> 100	> 17	> 100	
O=C(N/N=C/c1cccnc1)C1=NNC2CCCCC12 (stereo unspecified)	5	> 50		> 20		
COc1ccccc1NS(=O)(=O)c1ccc(N/N=C(\C)c2ccccc2Br)c([N+](=O)[O-])c1	> 10	6	> 100	12	> 100	
C=CC/N=c1/scc(-c2ccccc2Br)n1/N=C/c1ccccn1		23	> 100	> 1	> 100	
NNC(=O)c1cc(-c2ccc(Cl)cc2)n[nH]1	10	> 50				
Cc1[nH]n(-c2ccccc2)c(=O)c1/C=N/Nc1ccc([N+](=O)[O-])cc1	> 10	6				
O=C(N/N=C/c1c(O)ccc2ccccc12)c1cc[nH]n1	1.5	7	> 100	> 14	> 100	
COc1ccc(OC)c(/C=N/NC(=O)c2n[nH]c3c2CCC3)c1	> 10	> 50	> 100	> 40	> 100	
CCN(CC)c1ccc(/C=C2\CCC(/C=N/N=C/c3cccnc3)=C2N2CCOCC2)cc1	> 10	3	> 100	> 20	> 100	
O=C(CP(=O)(c1ccccc1)c1ccccc1)N/N=C/c1cc(Br)cc(Br)c1O	3.3	50	100		100	
Cc1occc1C(=O)NN/C=C1/C(=O)N(c2ccccc2Cl)C(=O)c2ccccc21	6.5	8	90		75	
COCC/N=c1/scc(-c2cccs2)n1/N=C/c1cc(Br)c(O)c(OC)c1	> 10	14	> 100	> 15	> 100	
Cc1ccc(N/N=C2\Sc3ccccc3C2=O)cc1	10	6	> 100	> 100	> 100	
O=C(N/N=C/c1cc(Br)ccc1O)C1=NNC2CCCCC12 (stereo unspecified)	5	4	29		15	

Source: ChEMBL document CHEMBL2311445, “Discovery of novel inhibitors of LEDGF/p75-IN protein-protein interactions” (Bioorg Med Chem, 2013)
